Data published in US9261498B2, “Biomarker for sensitivity to mTOR inhibitor therapy in kidney cancer” (The Regents of the University of California, priority 2005, dated 2016).
Entries after “also recorded” stand apart in the source; their conditions may differ.

Experiments:
[1] = tested on: VEGF; experiment: VEGF immunohistochemistry on xenograft tumors; assay type: in vivo, SCID mice; conditions: CCI-779 treated vs vehicle
Description: FIGS. 2A-2C. Effects of VHL knockdown on angiogenesis. (a) Microvessel density was quantified by CD-31 immunolabeling (arrows) in the xenograft tumors, and difference between CCI-779 treated (+) and vehicle (−) treated mice quantified (n=6 in each group). P<0.0033 for microvessel density counts in VHL shRNA compared to vector only (see blue bars). (b) Similar number of cells were plated and maintained in 10% serum rich media, in the presence (+) or absence (−) of 10 nM CCI-779. Thirty-six hours later, conditioned media was analyzed by anti-VEGF ELISA and cell extracts prepared for protein quantification. VEGF values were normalized to total cellular protein. Error bars equal one standard deviation (n=3). (c) Immunohistochemistry for VEGF protein was performed on paraffin embedded tumor xenografts from vehicle and CCI-779 treated mice.
Xenograft tumor samples were fixed in 10% buffered formalin and embedded in paraffin. […] Microvessel density was quantified by as described previously (Weidner, N. et al. J Natl Cancer Inst 84, 1875-87 (1992)). Briefly, microvessel density was determined by light microscopy in areas of the xenograft tumor containing highest numbers of capillaries and small venules (microvessels) per area (i.e. neovascular “hotspots”) by scanning the tumor sections at low power (40× and 100×). […]

[2] = tested on: HIF-1α; experiment: Immunoblot of heterologously expressed HIF-1α cDNA with or without 5'TOP sequences; assay type: cell-based, human; conditions: VHL wild-type SN12C cells, 1 or 10 nM CCI-779, 24 hours
Description: (a) SN12C-CSCG and SN12C-VHLshRNA cell were treated with vehicle, 1 nM or 10 nM of CCI-779 and lysed 24 hours later. Lysates were subjected to immunoblotting for HIF-1α, HIF-2α, GLUT-1, CA-IX, p-eIF4G, p-S6 Ribosomal protein. Equal protein loading was verified using anti-β-actin antibody. (b) HIF-1α expression was probed by immunoblotting in SN12C-MSCV-5′TOP-HIF-1α cDNA (left panel) and SN12C-MSCV-HIF-1α cDNA (tight panel) post 24 hours of vehicle, 1 nM or 10 nM of CCI-779.
The pCSUVCG (U6-shRNA-VHL-CMV-GFP) was constructed by ligating the BamHI/EcoRI digests of pCSCG and the U6-shRNA-VHL PCR product (see, e.g. Chen, C. D. et al. Nat Med 10, 33-9 (2004)). The U6-shRNA-VHL PCR was performed using a hU6-containing plasmid at an annealing temperature of 60° C. with the primers 5′ abc 3′ and 5′ xyz 3′. […]
Cells and xenograft tumors were lysed in ECB lysis buffer or high-detergent buffer (2% SDS), respectively, supplemented with complete protease and phosphatase inhibitor cocktails (Calbiochem). […] Bound antibody was detected using enhanced chemiluminescence (ECL, Amersham). For VEGF ELISA quantification, cells were plated in 6 well plates (1×10^5 per well). […] Thirty-six hours later, VEGF ELISA (R&D Systems) was performed according to the manufacturer's instructions, using a Fisher Plate reader. […]

Structure (SMILES): CO[C@H]1C[C@@H]2CC[C@@H](C)[C@@](O)(O2)C(=O)C(=O)N2CCCC[C@H]2C(=O)O[C@H]([C@H](C)C[C@@H]2CC[C@@H](OC(=O)C(C)(CO)CO)[C@H](OC)C2)CC(=O)[C@H](C)/C=C(\C)[C@@H](O)[C@@H](OC)C(=O)[C@H](C)C[C@H](C)/C=C/C=C/C=C/1C [CCI-779]
- VEGF protein expression in VHL knockdown xenografts [1]: reversed; also recorded: reduced
- HIF-1α protein levels, 5'TOP sequence removed [2]: largely unaffected
- HIF-1α protein levels, cDNA retaining the 5'TOP sequences [2]: reduction in HIF-1α protein levels; also recorded: decrease in HIF-1α protein levels
